Organism: Cavia porcellus
Assay: Tested for antagonism of the contractile effect on guinea pig ileum preparations
Type: functional
Conditions: read-out: pA2 (converted)

## COc1ccccc1[C@H](C)C(=O)N1C[C@@H]2[C@H](C1)C(c1ccccc1)(c1ccccc1)CC[C@@]2(O)c1ccccc1OC [DAPITANT]
  Kb: 8.91 nM

From ChEMBL document CHEMBL1127259, “Synthesis of RPR 100893, prototype of a new series of potent and selective non peptide NK1 antagonists : the triarylperhydroisoindolols” (Bioorg Med Chem Lett, 1994)
